SMILES strings stand for the structures. Peptide text beside a SMILES is read from it.

The test system of data set [1] is despair or resignation behavior in adult male rats. Description: Behavioral despair test (forced swimming test).
Description: The protective effect against resignation may be determined by the forced swimming test in rats.
The peptide to be tested is administered after the pre-test session and before the test. The immobility time of the rats is recorded for 5 min during the pre-test and the test.
The test includes a pre-test session of 15 minutes and a test session of 5 minutes, after 24 hours. During the pre-test session, the behavior of the rat is recorded during the first 5 minutes. At the end of the pre-test, the rat is removed from the water, delicately dried, treated and then put back in his dwelling cage. During the test, the rat is again deposited in water and its behavior is recorded for 5 minutes.
The reference substance was 8-OH-DOAT (0.5 mg/kg) which is a 5-HT1a agonist or imipramine (20 mg/kg), which is an inhibitor of serotonin reuptake.
For data set [2], the system named is colic inflammation in rats. Description: Colic inflammation model (intrarectal TNBS). It counts as in vivo, rat. Particulars: opiorphin 1 mg/kg i.v.
Data set [3] relates to tail-flick response in male Wistar rats.
Description: Male Wistar rats (Harlan, France) weighing 250 to 280 g at the beginning of the experiment were used in this study. After 7-day acclimatization period, they were weighed and randomly housed according to the treatment groups in a room with a 12 h alternating light/dark cycle (21:00 p.m./9:00 a.m.) and controlled temperature (21±1° C.) and hygrometry (50±5%). Food and water were available ad libidum. They were experimentally only tested once.
(§1) All drugs were administered in a volume of 1 ml/kg body weight.
The tail-flick test evaluating the time required to respond to acute thermal stimulus preferentially reflects nociceptive spinal reflex. A standardized tail-flick apparatus (Harvard Apparatus LTD, Edenbridge, England) with a radiant heat source connected to an automated tail-flick analgesymeter was used. Rats were accustomed to the situation of contention for two 2-min sessions, the day prior the test. On experimental day, they were gently restrained by hand so the radiant heat source was focused onto the distal dorsal surface of the tail. […] Under these experimental conditions and in reference to morphine, a 5 sec cut-off time was established to prevent tissue damage. […] For tolerance induction rats received daily intravenous administration of freshly prepared solutions during seven consecutive days.
The results were expressed as mean±SEM. The significance of differences between groups was evaluated using the Kruskal-Wallis one-way analysis of variance by ranks (KWT, a non-parametric method) for comparison between several independent variables across the experimental conditions. […] The non-parametric Wilcoxon matched pairs test (WT) was used to compare two paired variables with repeated measures in each treatment group. For all statistical evaluations, the level of significance was set at P<0.05. All statistical analyses were carried out using the computer software StatView®5 statistical package (SAS, Institute, Inc., USA).
For data set [4], the system named is locomotor activity in rats. Particulars: opiorphin 1 mg/kg i.v.; vs control.
Description: The measured variables are the number of upright standing movements (vertical activity) and the number of passages into the two compartments (horizontal activity) during a period of 3 min. The reference molecule is imipramine (20 mg/kg).
Data set [5] concerns chronic pain behavioral response in rats. Description: Formalin test (chronic chemical inflammatory pain).
Description: The reference substance is morphine, at a dose of 2 mg/kg.
The antagonistic effect of the following ligands was analyzed: an opioid antagonist with a wide spectrum (Naloxone, 3 mg/kg) and selective antagonists of the opioid μ-receptors (CTOP, 0.8 mg/kg), δ-receptors (Naltrindole, 10 mg/kg) and κ-receptors (Nor-Binaltorphimine, 5 mg/kg), respectively.
as §1
The subject of data set [6] is acute pain behavioral response in male rats.
The subject of data set [7] is pharmaco-dependency behavior in rats. To be noted: opiorphin at effective analgesic doses (1 mg/kg), repeated administration.
For data set [8], the system named is anxiety in Wistar male rats.

Excerpt for memorization in rats: With the passive avoidance test in rats it is possible to evaluate the degree of memorization of the animal during the application of an aversive stimulus from which it cannot escape. […] The first compartment where the rat is deposited at the beginning of the test is illuminated and communicates through a sash door with a dark compartment and the floor of which includes an electrified grid. The passive avoidance test includes a pre-test session where the animals receive an electric shock (2 mA, 2s) when it enters the dark compartment, and a 3 minute test session after 24 hours, where the behavior of the animal is analyzed for its long term retention of the learned task (the grid of the dark compartment is no longer electrified in the test).

Turning to `CCCN(CCC)C1CCc2cccc(O)c2C1` (stereo not drawn) [8-OH-DPAT, reference compound], in data set [1] (8-OH-DPAT 0.5 mg/kg), the “immobility time in the test vs control group (Mann-Whitney)” value is “significantly less than that of the rats from the control group”; the “immobility time, change between pre-test and test (Wilcoxon)” value was “significantly decreases between the pre-test and the test”.

Consider `CC(C)Cc1ccc(C(C)C(=O)O)cc1` (stereo not drawn) [ibuprofen, reference compound], for which the “protection of the colic wall from inflammation” value in [2] is recorded as “protect the colic wall from inflammation”.

With `CN1CC[C@]23c4c5ccc(O)c4O[C@H]2[C@@H](O)C=C[C@H]3[C@H]1C5` [morphine, reference compound], in the data set on peristaltism in rats (rats treated with morphine), the “inhibition of peristaltism as compared with control rats” value is 80-90%. The “morphine-induced increase vs Opiorphin-induced response, day 7” value in data set [3] (15 min post-injection, after 7 days chronic treatment) was “tended to be lower than the response induced by Opiorphin”.

Consider `NC(=O)CC[C@H](N)C(=O)N[C@@H](CCCN=C(N)N)C(=O)N[C@@H](Cc1ccccc1)C(=O)N[C@@H](CO)C(=O)N[C@@H](CCCN=C(N)N)C(=O)O` [opiorphin, QRFSR] (H-QRFSR-OH), for which the hyperactivity effect entry in data set [4] was “nor any significant hyperactivity effect”. For the same compound, in data set [1] (Naltrindole 10 mg/kg, specific antagonist of δ-opioid receptors), the “effects of opiorphin in the presence of Naltrindole” value is listed as “abolished”. Moreover, the “dose of maximum antidepressant potency” value in [1] (administered intravenously, adult male rats) is given as 1 mg/kg. In addition, the “immobility time in the test vs control group (Mann-Whitney)” value in [1] (opiorphin 0.5 mg/kg i.v.) is given as “tends to be less than that of the rats from the control group”; in [1] (opiorphin 1 mg/kg i.v.) it was “significantly less than that of the rats from the control group”; in data set [1] (opiorphin 2 mg/kg i.v.) it was “significantly less than that of the rats from the control group”. The “immobility time, change between pre-test and test (Wilcoxon)” value in data set [1] (opiorphin 1 mg/kg i.v.) is “significantly decreases between the pre-test and the test”; in [1] (opiorphin 2 mg/kg i.v.), “significantly decreases between the pre-test and the test”. Further, in [1] (opiorphin 1 mg/kg i.v., second series), the “effect in the behavioral despair model” value is on record as “induces an antidepressant effect in addition to a psychostimulant effect”. Also, in data set [5] (Naloxone 3 mg/kg), the “analgesic effect of opiorphin in the presence of Naloxone” value is listed as “abolished”. Moreover, the “prolonged analgesic profile, dose effect” value in [5] (duration of licking of the paw and number of spasms, n=8 rats/group) is “significant dose-dependent effect”. Also, in data set [5] (i.v., duration of licking of the paw and number of spasms, 60 min), the “dose of maximum anti-nociceptive potency” value lay within 1 to 2 mg/kg. Also, in data set [5] (specific antagonist of μ-opioid receptors, 0.8 mg/kg), the “analgesic effect of opiorphin in the presence of CTPA” value was “abolished”. The “latency time for entering the dark compartment, Test” value in the data set on memorization in rats (24 hours after, Opiorphin 1 mg/kg i.v. given immediately after pre-test, average ±SEM, n=8) is listed as 158.5 ± 20.5. Moreover, the amnesia effect entry in the data set with memorization in rats (opiorphin 1 mg/kg i.v.) is “does not show any amnesia effect”. Also, the anti-peristaltic effect entry in the data set on peristaltism in rats (rats treated with opiorphin) was “not observed”. The “antinociceptive activity compared with morphine” value in data set [6] (opiorphin 1 mg/kg i.v. vs morphine 6 mg/kg i.p.) is reported as “equivalent”. Further, the antinociceptive activity entry in data set [6] (opiorphin 1 mg/kg i.v., n=8-12 rats/group) is given as “potent antinociceptive activity”. The “response latencies vs morphine-treated rats” value in data set [3] (15, 25 and 60 minutes after treatment, Opiorphin 2 mg/kg i.v. vs morphine 1 mg/kg i.v.) was “did not significantly differ”. The “tolerance to maximal antinociceptive effect” value in data set [3] (Opiorphin 2 mg/kg i.v. once daily for 7 days) is “does not induce the development of tolerance”. For the same compound, the “dose of maximal antinociceptive effect” value in data set [3] (preliminary data, dose-dependent responses) was 2 mg/kg. The pharmaco-dependence result in [7] is “does not cause significant pharmaco-dependence”. Moreover, the “protection of the colic wall from inflammation” value in data set [2] is on record as “does not protect the colic wall from inflammation”. For the same compound, in data set [8] (Opiorphin 1 mg/kg i.v., 15 minutes before the test, n=8), the “overall anxiety score, Average ± SEM” value is reported as 25.94 ± 3.74. The “anxiolytic activity relatively to the control” value in [8] (opiorphin 1 mg/kg i.v.) was “did not show any anxiolytic activity”.

These data come from US20150329608A1 (INSTITUT PASTEUR, priority 2008, published 2015).
